Assay results: patent US10183047B2, “Chromium-containing compositions in combination with Phyllanthus emblica and shilajit having synergistic effects for improving endothelial function and cardiovascular health” (Natreon, Inc., priority 2014, dated 2019)
Marks after values point to notes of the source that are not given here.

Assays:
Assay type in all cases: in vivo, human
[1] = system: endothelial function; experiment: Reflection index (RI), salbutamol challenge test with digital volume plethysmography, type 2 diabetics; conditions: for RI: DM, 400 mcg; for Absolute change of RI / Reflection index (%) Post Tt / Reflection index (%) Pre Tt: type 2 diabetics (Example 3), chromium products 400 mcg; for Absolute change of RI: 12 week treatment; for Reflection index (%) Post Tt: post-treatment, 12 weeks; for Reflection index (%) Pre Tt: pre-treatment
Description: (§1) The present clinical study is a prospective, randomized, double blind, placebo-controlled study. Patients of either sex, aged 30-65 years, fasting plasma glucose of 110-126 mg/dl, a glycosylated hemoglobin (HbA1c) between 6.5% and 8% and taking stable dose of anti-diabetic treatment (metformin 1500-2000 mg/day) for the past 8 weeks prior to the screening visit; and having endothelial dysfunction defined as ≤6% change in reflection index (RI) on post salbutamol challenge test were included in the study. Patients with severe uncontrolled hyperglyceamia, uncontrolled hypertension, cardiac arrhythmia, impaired hepatic or renal function, history of malignancy or stroke, smoking, chronic alcoholism, any other serious disease requiring active treatment and treatment with any other herbal supplements, were excluded from the study.
(§2) After screening, all the eligible subjects were randomized to receive either one of the three treatments orally for duration of 12 weeks—Group1—one capsule of Crominex®3+, 200 mcg once daily, Group 2—one capsule Crominex®3+, 400 mcg once daily; Group 3—one capsule of placebo once daily.
(§3) Subjects were required for follow up at 4, 8 and 12 weeks of therapy. At each visit they were evaluated for efficacy and safety. Pharmacodynamic evaluation for endothelial function was conducted at every visit. Blood samples were collected for evaluation of biomarkers before and at the end of treatment. Safety lab investigations for hematological, hepatic and renal biochemical parameters were conducted before and at the end of the study and also as and when required (in case of any adverse drug reaction (ADR). Subjects were enquired for the presence of ADR and the same was recorded in the case report form. Compliance to therapy was assessed by pill count method.
Procedure for Assessment of Endothelial Function by Determination of Reflection Index (RI).
(§4) A salbutamol (albuterol) challenge test employing digital volume plethysmography was used to assess endothelial function as reported by Chowienczyk et al., “Photoplethysmographic assessment of pulse wave reflection: blunted response to endothelium dependant beta 2-adrenergic vasodilation in type 2 diabetes mellitus,” J. Am. Coll. Cardiol. (1999 December) 34(7):2007-14; and Naidu, et al., “Comparison of two β2 adrenoceptor agonists by different routes of administration to assess human endothelial function,” Indian J. Pharmacol. (2007) 39:168-9. The patients were examined in supine position after 5 minutes of rest. A digital volume pulse (DVP) was obtained using a photo plethysmograph (Pulse Trace PCA2, PT200, Micro Medical, Gallingham, Kent, UK) transmitting infrared light at 940 nm, placed on the index finger of the right hand. The signal from the plethysmograph was digitized using a 12 bit analogue to digital converter with a sampling frequency of 100 Hz. DVP waveforms were recorded over 20 second period and the height of the late systolic/early diastolic portion of the DVP was expressed as a percentage of the amplitude of the DVP to yield the reflection index (RI), per the procedure described in detail by Millasseau et al., “Determination of age related increases in large artery stiffness by digital pulse contour analysis,” Clinical Science (2002) 103: 371-377. Three DVP recordings were taken, and measurements of reflection index (RI) were calculated and the mean value was determined. Patients were then administered 400 μg of salbutamol by inhalation. After 15 minutes three measurements of RI were obtained again and the difference in mean RI before and after administration of salbutamol was used for assessing endothelial function. A change of ≤6% in RI post-salbutamol was considered as endothelial dysfunction.
The primary efficacy measure was a change in endothelial dysfunction as assessed by more than 6% change in reflection index at 12 weeks. […]

[2] = system: glutathione (GSH); experiment: Glutathione level, spectrophotometric, type 2 diabetics; conditions: for GSH: DM, 400 mcg; for Mean percentage change in GSH / GSH Post Tt / GSH Pre Tt: type 2 diabetics (Example 3), chromium products 400 mcg; for Mean percentage change in GSH: 12 week treatment; for GSH Post Tt: post-treatment, 12 weeks; for GSH Pre Tt: pre-treatment
Description: as §1, §2, §3
(§5) Nitric oxide, MDA, Glutathione and levels were estimated spectrophotometrically as follows. Malondialdehyde (MDA) levels were determined as described in Vidyasagar, et al., “Oxidative stress and antioxidant status in acute organophosphorous insecticide poisoning,” Indian J. Pharmacol. (April 2004) 36(2): 76-79. Glutathione levels were determined as described in G. L. Ellman, Arch. Biochem. Biophys. (1959) 82: 70-77 (original determination). Nitric oxide levels were estimated spectrophotometrically as described in Miranda, et al., “A Rapid, Simple Spectrophotometric Method for Simultaneous Detection of Nitrate and Nitrite,” NITRIC OXIDE: Biology and Chemistry (2001) Vol. 5, No. 1, pp. 62-71. hsCRP (high sensitivity C-reactive protein) was determined by ELISA method.
(§6) When the results with Crominex® 3+ in the above two examples were highly significant, especially with the 400 mcg once daily dose in type 2 diabetics, two more clinical studies (EXAMPLES 3 & 4) were conducted at the same institute, following the same methodology as described earlier, on the individual components of Crominex® 3+, i.e., chromium chloride and Phyllanthus emblica+Shilajit, and other chromium supplements available in the market, i.e., chromium picolinate, chromium polynicotinate and chromium dinicocysteinate, in type 2 diabetics as well as in subjects with metabolic syndrome symptoms.

[3] = system: malondialdehyde (MDA); experiment: Malondialdehyde level, spectrophotometric, type 2 diabetics; conditions: for MDA: DM, 400 mcg; for Mean percentage change in MDA / MDA Post Tt / MDA Pre Tt: type 2 diabetics (Example 3), chromium products 400 mcg; for Mean percentage change in MDA: 12 week treatment; for MDA Post Tt: post-treatment, 12 weeks; for MDA Pre Tt: pre-treatment
Description: as §1, §2, §3, §5, §6

[4] = system: high sensitivity C-reactive protein (hsCRP); experiment: hsCRP by ELISA, type 2 diabetics; conditions: for hsCRP: DM, 400 mcg; for Mean percentage change in hsCRP / hsCRP Post Tt / hsCRP Pre Tt: type 2 diabetics (Example 3), chromium products 400 mcg; for Mean percentage change in hsCRP: 12 week treatment; for hsCRP Post Tt: post-treatment, 12 weeks; for hsCRP Pre Tt: pre-treatment
Description: as §1, §2, §3, §5, §6

[5] = Blood pressure, type 2 diabetics; conditions: type 2 diabetics (Example 3), chromium products 400 mcg; for Diastolic blood pressure Post Tt / Systolic blood pressure Post Tt: post-treatment, 12 weeks; for Diastolic blood pressure Pre Tt / Systolic blood pressure Pre Tt: pre-treatment
Description: as §6

[6] = system: endothelial function; experiment: Reflection index (RI), salbutamol challenge test, metabolic syndrome subjects; conditions: for RI: MS, 400 mcg; for Absolute change in RI / RI, % Post Tt: after 12 weeks of treatment
Text: as §4
Patients included in the study, were of either gender, aged 30-68 years, having endothelial dysfunction defined as ≤6% change in reflection index (RI) on post salbutamol challenge test and central obesity as defined by The International Diabetes Federation guidelines, dated 2006, and any two of the following conditions:
After screening, all the eligible subjects were randomized to receive either one of the three treatments orally for duration of 12 weeks: group 1—one capsule of Crominex®3+ 200 mcg once daily; group 2—one capsule 400 mcg once daily; group 3—one capsule of Placebo once daily.
Subjects were reviewed for follow up at 4 weeks, 8 and 12 weeks of therapy. At each visit they were evaluated for efficacy and safety. Pharmacodynamic evaluation for endothelial function was conducted at baseline and end of treatment. Blood samples were collected for evaluation of biomarkers before and at end of treatment. Safety lab investigations for hematological, hepatic and renal biochemical parameters were conducted before and at the end of the study and also as and when required (in case of any adverse drug reaction (ADR)). Subjects were enquired for the presence of ADR and the same was recorded in the case report form. Compliance to therapy was assessed by pill count method.
Assessment of endothelial function, biomarkers, safety parameters and primary and secondary efficacy parameters and data analysis were performed as described under the study with type 2 diabetic subjects in Example 1.
as §6

[7] = metabolic syndrome subjects (Example 4), chromium products 400 mcg

| Substance | RI [1] | Absolute change of RI [1] | Reflection index (%) Post Tt [1] | Reflection index (%) Pre Tt [1] | GSH [2] | Mean percentage change in GSH [2] | GSH Post Tt [2] | GSH Pre Tt [2] | MDA [3] | Mean percentage change in MDA [3] | MDA Post Tt [3] | MDA Pre Tt [3] | hsCRP [4] | Mean percentage change in hsCRP [4] | hsCRP Post Tt [4] | hsCRP Pre Tt [4] | Diastolic blood pressure Post Tt [5] | Systolic blood pressure Post Tt [5] | Diastolic blood pressure Pre Tt [5] | Systolic blood pressure Pre Tt [5] | further results |
| --- | --- | --- | --- | --- | --- | --- | --- | --- | --- | --- | --- | --- | --- | --- | --- | --- | --- | --- | --- | --- | --- |
| chromium picolinate | −2.2% | −2.22 + 0.89 # % | −2.46 ± 0.90 % | −4.68 ± 1.24^ % | 7.2% | 7.20 ± 0.82 #@NS % | 535.96 ± 31.89 μM/L | 499.99 ± 30.23 μM/L | −6.03% | −6.03 ± 1.65 #NS % | 3.78 ± 0.34 nmol/mL | 4.02 ± 0.33 nmol/mL | −18.9% | −18.90 ± 7.04@$NS % | 2.22 ± 0.64 mg/L | 2.70 ± 0.63 mg/L | 76.32 ± 2.14 NS mmHg | 117.47 ± 2.82 NS mmHg | 76.95 ± 2.70 mmHg | 118.63 ± 2.75 mmHg | RI [6]: −3.25%; Absolute change in RI [6, 7]: −3.25 ± 0.98 #@NS %; RI, % Post Tt [6, 7]: −6.45 ± 0.40 % |
| chromium polynicotinate | −1.04% | −1.04 + 0.39 #NS % | −3.71 ± 1.1 $ % | −4.3 ± 1.2% | 5.3% | 5.30 ± 1.04 #@NS % | 534.54 ± 32.56 μM/L | 507.72 ± 31.73 μM/L | −5.56% | −5.56 ± 1.34 #NS % | 3.75 ± 0.24 nmol/mL | 3.97 ± 0.23 nmol/mL | −11.45% | −11.45 ± 12.28 #NS % | 2.43 ± 0.49 mg/L | 2.75 ± 0.47 mg/L | 79.7 ± 2.85 NS mmHg | 124.1 ± 4.88 NS mmHg | 81.2 ± 3.07 mmHg | 125.9 ± 5.17 mmHg | RI [6]: −1.51%; Absolute change in RI [6, 7]: −1.51 ± 1.78 #@NS %; RI, % Post Tt [6, 7]: −3.85 ± 0.86 @ %; RI, % Pre Tt ([6]; metabolic syndrome subjects (Example 4), chromium products 400 mcg, pre-treatment): −2.39 ± 2.18 ^ % |
